Columns and labels:
[1] = Gao et al., Journal of Polymer Research 2011; cited from earlier work
[2] = Pre-formulation solubility of DMVT-505 in excipients and solvent systems; type: physicochemical
Procedure: (§1) Pre-formulation experiments were performed to understand the solubility and stability of the drug in excipients. In relation to drug/excipient compatibility, DMVT-505 was stable for 2 weeks (peak purity>98%) in most excipients at 40° C., with the exception of MCTs and DMI, which may be due to oxidation. Based on the pre-formulation data, aqueous-based solvent systems were designed for WS3. Further formulations were prepared combining suitable phases developed during all the workstreams to obtain formulations to limit the suspected drug partitioning between the aqueous and oil phases (WS2/3/4).
Experiments conducted on the stability of DMVT-505 in individual excipients also allowed for the identification of suitable alternative oil and aqueous phase excipients, and this information was used during the formulation development as the basis of solvent system design.
For WS3, aqueous phases were designed and DMVT-505 solubility in such systems was determined, ahead of formulation development where formulations were sequentially developed, tested and optimized using accelerated physical stability data generated primarily via the LUMiSizer platform. […] Additionally, combined aspects of each workstream (WS2/3/4) were developed with optimal physical stability and to limit the partitioning of the drug between the oil and aqueous phases.
For WS2, oil phase solvent systems were designed and DMVT-505 solubility in such systems was determined, ahead of formulation development where formulations were sequentially developed, tested and optimized using accelerated physical stability data generated primarily via the LUMiSizer platform. […] A number of emulsifiers and surfactant systems (WS4) were screened in order to achieve a formulation which was, theoretically, as stable as CR01. To do this, WS4 formulations were rationally designed, prepared and tested in a similar fashion to the previous workstreams. Additionally, combined aspects of each workstream (WS2/3/4) were developed with optimal physical stability and to limit the partitioning of the drug between the oil and aqueous phases.

[3] = system: AhR pathway in intestinal human colon adenocarcinoma
[4] = 28-day twice daily topical administration: toxicokinetics, skin concentrations, dermal irritancy and toxicity (Example 7); parameters: species or system Gottingen minipigs; conditions: minipig, in vivo
Procedure: Following dose application on each dosing day, the dose sites were semi-occluded for approximately 20±1 hours from the first dose and then gently washed before the next dose was applied.

AhR target gene, cyp1a1 = conditions: primary human keratinocytes, human or rodent leukocytes
[5] = Drug/excipient compatibility, 2 weeks at 40° C.; type: physicochemical; conditions: 2 weeks in most excipients at 40° C., with the exception of MCTs and DMI
Procedure: as §1
as §1, with “oil-based” for “aqueous-based”, “WS2. Formulations based on these solvent systems, along with formulations with alternative emulsifiers (WS4) were developed.” for “WS3.”

[6] = Nonclinical study, subcutaneous 3 mg/kg/day, 13 weeks (NOAEL); type: in vivo; conditions: Rat

In the case of `CC(C)c1c(O)cc(/C=C/c2ccccc2)cc1O` [3,5-Dihydroxy-4-isopropyl-trans-stilbene], the “sensitivity to oxidation and photo degradation” value [1] is listed as “sensitive to oxidation and photo degradation”, the “solubility in diisopropyl adipate” value [2] is listed as “good solubilizer” and the “solubility in mineral oil” value [2] is listed as “non-solvent”. For the same compound, the solubility in water [2] was “not soluble in water”, the solubility ([2]; in fixed oils, fatty alcohols, glycols and volatile solvent) was greater than 7 % w/w and the AhR pathway activity [3] was “activator”. For the same compound, the “dermal irritation at the dose site” value [4] was “no test article-related dermal irritation”, the systemic toxicity [4] was “no systemic toxicity” and the “expression of the AhR target gene cyp1a1” value (AhR target gene, cyp1a1) was “induce the expression”. The peak purity [5] was greater than 98% and the “AUC NOAEL” value [6] was 99 ng·h/mL.
